Experimental data reported in US12459940B2, “Oxazole compound as multi-targeted inhibitor of IRAK4 and BTK” (SHANGHAI FOSUN PHARMACEUTICAL INDUSTRIAL DEVELOPMENT CO., …, priority 2019, dated 2025).

Tested on: human B-cell lymphoma OCI-LY10 cell subcutaneous xenograft tumor
Assay: Human B-cell lymphoma OCI-LY10 cell subcutaneous xenograft tumor mouse model
Assay type: in vivo
Settings: 10 mpk, 18 days after the start of administration, p<0.001
Experimental: The objective of the experiment was to study the efficacy of WX001 as the test drug on human B-cell lymphoma OCI-LY10 cell subcutaneous xenograft tumor in CB17 SCID mouse model.
OCI-LY10 human B-cell lymphoma cells were cultured in a 37° C., 5% CO2 incubator.
OCI-LY10 tumor cells were cultured and passaged, and 0.2 mL (1×10^7 cells) OCI-LY10 cells were subcutaneously inoculated on the right back of each […] (with Matrigel, volume ratio 1:1), and the group administration was started when the average tumor volume reached 167 mm^3. The health status and death of animals were monitored every day, and routine examinations included observing the effects of tumor growth and drug treatment on daily behaviors of animals, such as behavioral activities, food intake and water intake, weight change (weight was measured twice a week), tumor size (tumor volume was measured twice a week), appearance signs or other abnormal conditions.
The experimental index was to investigate whether the tumor growth was inhibited, delayed or cured. Including the measurement of tumor volume (TV), and the calculation of the compound's anti-tumor efficacy using TGI (%) or the relative tumor proliferation rate T/C (%).
TV=0.5a×b^2, a and b represented the long diameter and short diameter of the tumor, respectively.
T/C %=TRTV/CRTV×100% (TRTV: RTV in treatment group; CRTV: RTV in negative control group). Relative tumor volume (RTV) was calculated according to the results of tumor measurement, and the calculation formula was RTV=Vt/V0, wherein V0 was the average tumor volume measured at the time of group administration (i.e., d0), Vt was the average tumor volume at a certain measurement, and TRTV and CRTV were the data taken at the same day.

C=CC(=O)N1CCC[C@@H](n2nc(-c3ccc(Oc4ccccc4)cc3)c3c(N)ncnc32)C1 [Ibrutinib, reference compound] was tested, and the T/C value was 39% and the TGI value was 85%.
